Ends that are not written are not given here.

This assay has as its target T1, Recombinant Human Insulin Receptor (28-956) (soluble insulin receptor, SIR) (Homo sapiens, UniProt P06213).
T1 construct: Recombinant Human Insulin Receptor (28-956); purchased GT/TECHNE Corp
The experiment in a line: BIAcore determination of peptide-SIR binding (peptide immobilized on sensor chip CM5, soluble insulin receptor as analyte). Conditions: sensor chip CM5, amine coupling, HBS-EP buffer, SIR 100 nM to 0.781 nM, flow 10 μl/min; for koff: read-out: Dissociation rate constant (peptide-SIR). The method, then:
The affinity for the soluble insulin receptor identified by SEQ ID NO:1 is compared by the method using BIAcore (BIAcore AB) (as described in Am. J. Physiol. 272 (1997) E1089-1098). Briefly, a solution of the soluble insulin receptor is brought into contact with the surface of the ready-made sensor chip with the peptide defined by SEQ ID NO:1 as immobilized thereon, and the interaction is measured.
The dissociation constant (KD) of the peptide P14 obtained in Example 3 was determined using BIAcore upgrade (Biacore AB) and the analysis software BIA evaluation version 3.0 (Biacore AB).
The ligand was immobilized on the sensor chip CM5 research grade (Biacore AB) by the amine coupling method. Thus, the peptide mentioned above was dissolved in 20 mM carbonate buffer (pH 8.5) (500 μg/ml), and 100 μl of the solution was passed through the flow cell at a flow rate of 5 μl/min. The amount of the peptide immobilized was 200 RU (resonance units).
Recombinant Human Insulin Receptor (28-956) (GT/TECHNE Corp.) was used as the analyte soluble insulin receptor (SIR). To 50 mg in a vial was added HBS-EP buffer (250 ml) for thorough dissolution ([…]), and the solution was 10-fold diluted to give a 100 nM solution. Eight concentration levels from 100 nM to 0.781 nM were prepared by subsequent repetitions of doubling dilution, and measurements were carried out using HBS-EP buffer (10 mM HEPES pH 7.4, 0.15M NaCl, 3 mM EDTA, 0.005% Surfactant P20) (Biacore AB) as a running solution; the rate of flow was 10 μl/min. A sensorgram was thus obtained.
The dissociation constant (KD) of the peptide P15 obtained in Example 6 was determined using BIAcore upgrade (Biacore AB) and the analysis software BIA evaluation version 3.0 (Biacore AB).
The ligand was immobilized on the sensor chip CM5 research grade (Biacore AB) by the amine coupling method. Thus, the peptide mentioned above was dissolved in 20 mM carbonate buffer (pH 8.5) (500 μg/ml), and 100 μl of the solution was passed through the flow cell at a flow rate of 5 μl/min. The amount of the peptide immobilized was 130 RU.
Recombinant Human Insulin Receptor (28-956) (GT/TECHNE Corp.) was used as the analyte SIR. Eight concentration levels from 100 nM to 0.781 nM were prepared by subsequent repetitions of doubling dilution, which was started from diluting 100 nM solution, and measurements were carried out using HBS-EP buffer as a running solution; the rate of flow was 10 μl/min. A sensorgram was thus obtained.
The dissociation constant (KD) of the peptide P21 obtained in Example 7 was determined using BIAcore upgrade (Biacore AB) and the analysis software BIA evaluation version 3.0 (Biacore AB).
The ligand was immobilized on the sensor chip CM5 research grade (Biacore AB) by the amine coupling method. Thus, the peptide mentioned above was dissolved in 20 mM carbonate buffer (pH 8.5) (500 μg/ml), and 100 μl of the solution was passed through the flow cell at a flow rate of 5 μl/min. The amount of the peptide immobilized was 270 RU.

T1 sequence (P06213 28-956): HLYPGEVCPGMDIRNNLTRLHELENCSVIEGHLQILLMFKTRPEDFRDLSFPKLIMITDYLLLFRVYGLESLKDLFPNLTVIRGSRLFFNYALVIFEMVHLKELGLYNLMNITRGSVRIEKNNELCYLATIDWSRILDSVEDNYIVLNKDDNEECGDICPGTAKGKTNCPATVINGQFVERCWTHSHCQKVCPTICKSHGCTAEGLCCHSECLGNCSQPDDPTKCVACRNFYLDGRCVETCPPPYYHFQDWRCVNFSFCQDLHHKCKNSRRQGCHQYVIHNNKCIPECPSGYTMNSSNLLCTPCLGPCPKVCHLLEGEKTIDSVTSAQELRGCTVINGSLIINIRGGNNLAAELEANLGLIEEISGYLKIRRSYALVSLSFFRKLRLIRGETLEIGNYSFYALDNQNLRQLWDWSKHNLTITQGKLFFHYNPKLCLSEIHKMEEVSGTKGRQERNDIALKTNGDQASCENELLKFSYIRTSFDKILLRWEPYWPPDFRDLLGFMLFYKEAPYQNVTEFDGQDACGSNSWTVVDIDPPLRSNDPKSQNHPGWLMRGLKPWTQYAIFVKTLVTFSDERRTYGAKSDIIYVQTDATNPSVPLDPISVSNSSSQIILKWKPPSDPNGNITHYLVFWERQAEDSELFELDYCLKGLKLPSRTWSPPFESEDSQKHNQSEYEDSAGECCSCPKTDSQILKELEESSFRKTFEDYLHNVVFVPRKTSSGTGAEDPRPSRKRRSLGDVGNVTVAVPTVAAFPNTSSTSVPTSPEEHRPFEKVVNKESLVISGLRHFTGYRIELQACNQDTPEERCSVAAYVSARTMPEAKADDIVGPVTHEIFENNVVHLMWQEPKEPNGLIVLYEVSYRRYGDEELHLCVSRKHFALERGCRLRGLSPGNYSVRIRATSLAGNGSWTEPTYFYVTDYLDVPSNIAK

As for CASDIVEGIYL [Peptide P15, CASDIVEGIYL], the “Binding rate constant (peptide-SIR)” value is given as 8.6E+02 and the koff was 0.02 s⁻¹.

As for “CASDIVEGLYIVLAER [Peptide P14, CASDIVEGLYIVLAER]”, the “Binding rate constant (peptide-SIR)” value came to 9.7E+03 and the koff was found to be 0.015 s⁻¹.

With “CQHILGSDIVEGIYL [Peptide P21, CQHILGSDIVEGIYL]”, the “Binding rate constant (peptide-SIR)” value came out at 5.1E+04 and the koff amounted to 0.6 s⁻¹.

Source of the values: patent US7906618B2, “Peptide capable of binding to insulin-binding protein and adsorbent” (Kaneka Corporation, priority 2004, dated 2011).
